Test results: patent US20230348477A1, “ORGANIC COMPOUND, LIGHT-EMITTING DEVICE, LIGHT-EMITTING APPARATUS, AND ELECTRONIC DEVICE” (SEMICONDUCTOR ENERGY LABORATORY CO., LTD., priority 2022, published 2023)
Converted amounts (≈) assume the structure as drawn. “Also recorded” adds a separate entry of the source.

What was measured:
[1] = Solubility test in water by visual inspection; assay type: physicochemical; conditions: room temperature, one atmosphere; for solubility in water, result in words (visual inspection): about 1.2 mg sample, water added in 10 mL steps (tip compounds)
Description: (§1) In this example, the organic compounds synthesized in Examples 1 and 2 are used to explain the solubility of the organic compound of one embodiment of the present invention. The solubility tests of this example were performed at room temperature (RT) at one atmosphere.
(§2) Into a 110 mL sample bottle, 1.21 mg of 2,6tip2Py was put and 10 mL of water was added thereto. This mixture was irradiated with ultrasonic waves for one minute. A precipitated white powder was found by visual inspection for an insoluble residue. After further addition of 10 mL of water and one-minute ultrasonic wave irradiation, a precipitated white powder was found by visual inspection. This procedure was repeated until the dissolution was confirmed by visual inspection.
Into a 110 mL sample bottle, 1.23 mg of 2,7tip2SF was put and 10 mL of water was added thereto. This mixture was irradiated with ultrasonic waves for one minute. A precipitated white powder was found by visual inspection for an insoluble residue. After further addition of 10 mL of water and one-minute ultrasonic wave irradiation, a precipitated pale yellow powder was found by visual inspection. This procedure was repeated until the dissolution was confirmed by visual inspection.
Into a 5 mL sample bottle, 50.2 mg of 1,1′-pyridine-2,6-diyl-bis(1,3,4,6,7,8-hexahydro-2H-pyrimido[1,2-a]pyrimidine) (abbreviation: hpp2Py) having a structure where a hydropyrimidine ring is substituted for the imidazole ring of the guanidine skeleton in 2,6tip2Py, which is an organic compound of one embodiment of the present invention, was put, and 1.0 mL of water was added thereto. The dissolution was found by visual inspection for an insoluble residue.
as §2, with “20” for “110”, “1.16” for “1.21”, “1,1′-(9,9′-spirobi[9H-fluorene]-2,7-diyl)bis(1,3,4,6,7,8-hexahydro-2H-pyrimido[1,2-a]pyrimidine) (abbreviation: 2,7hpp2SF) having a structure where a hydropyrimidine ring is substituted for the imidazole ring of the guanidine skeleton in 2,7tip2SF, which is an organic compound of one embodiment of the present invention,” for “2,6tip2Py”, “put,” for “put”, “0.5” for “10”
The precipitated white powder was found until the total amount of water reached 3.0 mL. After further addition of 0.5 mL of water and ultrasonic wave irradiation, no precipitated white powder was found.

[2] = Solubility test in water by LC/MS; assay type: physicochemical; conditions: room temperature, one atmosphere; for solubility in water, result in words (LC/MS): 1 mg in 1 mL water
Description: as §1
In the LC-MS analysis, liquid chromatography (LC) separation was carried out with ACQUITY UPLC manufactured by Waters Corporation, and MS analysis (mass spectrometry) was carried out with Xevo G2 Tof MS manufactured by Waters Corporation. Acquity UPLC BEH C8 (2.1 × 100 mm, 1.7 µm) was used as a column for the LC separation. Acetonitrile was used for Mobile Phase A and a 0.1 % aqueous solution of formic acid was used for Mobile Phase B. The amount of injection of the sample was 5.0 µL. Note that in the analysis, the wavelength of a photodiode array detector was set to 270 nm.
Into a 5 mL sample bottle, 1 mg of 2,6tip2Py was put and 1 mL of chloroform was added thereto. This mixture was irradiated with ultrasonic waves for five minutes. After it was confirmed that the solid was completely dissolved, this solution was diluted by five times with acetonitrile, whereby the concentration of the solution was adjusted to 200 mg/L. This solution was diluted with acetonitrile, whereby a solution with a concentration of 40 mg/L, a solution with a concentration of 20 mg/L, and a solution with a concentration of 10 mg/L were prepared. The prepared solutions were subjected to LC/MS, and the peak area values derived from 2,6tip2Py, which were obtained at the respective solution concentrations, were used to form calibration curves.
Into a 5 mL sample bottle, 1 mg of 2,6tip2Py was put and 1 mL of water was added thereto. This mixture was irradiated with ultrasonic waves for five minutes. This mixture was filtered through a membrane filter to remove the solid, and the resulting filtrate was diluted by five times with acetonitrile. The obtained solution was subjected to LC/MS.
Into a 5 mL sample bottle, 1 mg of 2,7tip2SF was put and 1 mL of water was added thereto. This mixture was irradiated with ultrasonic waves for five minutes. […]

Row | solubility at 5 min ([2]; thermodynamic from solid, filtrate quantified by LC/MS against calibration curve, read-out: solubility in 1 mL of water) [µg/mL] | weight dissolved in 1.0 mL of water ([1]; ultrasonic irradiation, visual inspection, per 1.0 mL of water) | Compound | solubility in water, result in words (visual inspection) [1] | solubility in water, result in words (LC/MS) [2]
1 | 18 (≈ 56 µM) |  | c1cc(N2CCCn3ccnc32)nc(N2CCCn3ccnc32)c1 [2,6tip2Py, 8,8′-pyridine-2,6-diyl-bis(5,6,7,8-tetrahydroimidazo[1,2-a]pyrimidine)] | precipitated white powder was found until the total amount of water reached 100 mL | very low solubility in water
2 |  |  | c1ccc2c(c1)-c1ccccc1C21c2cc(N3CCCN4CCCN=C43)ccc2-c2ccc(N3CCCN4CCCN=C43)cc21 [2,7hpp2SF, 1,1′-(9,9′-spirobi[9H-fluorene]-2,7-diyl)bis(1,3,4,6,7,8-hexahydro-2H-pyrimido[1,2-a]pyrimidine)] | high solubility in water | 
3 |  |  | c1ccc2c(c1)-c1ccccc1C21c2cc(N3CCCn4ccnc43)ccc2-c2ccc(N3CCCn4ccnc43)cc21 [2,7tip2SF, 8,8′-(9,9′-spirobi[9H-fluorene]-2,7-diyl)bls(5,6,7,8-tetrahydrolmidazo[1,2-a]pyrimidine)] | precipitated pale yellow powder was found until the total amount of water reached 100 mL | insoluble in water; also recorded: very low solubility in water
4 |  | greater than or equal to 50.2 mg | c1cc(N2CCCN3CCCN=C32)nc(N2CCCN3CCCN=C32)c1 [hpp2Py, 1,1′-pyridine-2,6-diyl-bis(1,3,4,6,7,8-hexahydro-2H-pyrimido[1,2-a]pyrimidine)] | high solubility in water | 
